Tests used:
Format in all cases: biochemical
EGFR WT = EGFR WT (Homo sapiens (Human), UniProt P00533); experiment: HotSpot radiometric kinase assay (Reaction Biology), EGFR WT; details: 10 μM ATP
How it was run: (§1)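 IC50 values come from curve fits of ^33P incorporation captured on P81 filters after acid washing. Kinase reactions ran 120 min at room temperature with 10 μM ATP, added about 20 min after compound. Buffer was Hepes pH 7.5 containing Mg, DTT and 1% DMSO.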

EGFR (D770_N771insNPG) = EGFR (D770_N771insNPG) (Homo sapiens (Human), UniProt P00533, INS770NPG); experiment: HotSpot radiometric kinase assay, EGFR (D770_N771insNPG); details: 10 μM ATP, read-out: EGFR (Δ770_N771insNPG) IC50
How it was run: as §1

EGFR Δ746-750 mutant = EGFR Δ746-750 mutant (Homo sapiens (Human), UniProt P00533, DEL746-750); experiment: HotSpot radiometric kinase assay, EGFR Δ746-750 mutant; details: 10 μM ATP
Chain of EGFR Δ746-750 mutant (P00533 other isoform, or with tags, fused parts or gaps del 1-668/del 746-750 limits assumed): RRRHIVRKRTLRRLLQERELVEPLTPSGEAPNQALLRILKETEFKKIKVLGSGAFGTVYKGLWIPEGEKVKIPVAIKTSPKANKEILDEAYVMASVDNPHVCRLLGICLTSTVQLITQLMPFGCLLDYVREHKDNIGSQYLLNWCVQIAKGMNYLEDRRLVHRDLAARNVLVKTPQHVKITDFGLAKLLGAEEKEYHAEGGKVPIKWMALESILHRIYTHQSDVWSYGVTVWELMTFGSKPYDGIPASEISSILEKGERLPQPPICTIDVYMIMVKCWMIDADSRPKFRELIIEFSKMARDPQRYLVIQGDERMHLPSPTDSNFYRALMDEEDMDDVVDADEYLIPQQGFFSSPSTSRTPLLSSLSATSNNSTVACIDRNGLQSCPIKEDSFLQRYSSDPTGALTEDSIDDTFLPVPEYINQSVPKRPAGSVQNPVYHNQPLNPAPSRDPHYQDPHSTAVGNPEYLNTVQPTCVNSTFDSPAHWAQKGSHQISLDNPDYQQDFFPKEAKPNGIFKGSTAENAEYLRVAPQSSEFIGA
How it was run: as §1

[1] = target: EGFR Δ746-750/C797S mutant (Homo sapiens (Human), UniProt P00533, C797S/DEL746-750); experiment: HotSpot radiometric kinase assay, EGFR Δ746-750/C797S mutant; details: 10 μM ATP
How it was run: as §1

EGFR L858R mutant = EGFR L858R mutant (Homo sapiens (Human), UniProt P00533, L858R); experiment: HotSpot radiometric kinase assay, EGFR L858R mutant; details: 10 μM ATP
How it was run: as §1

EGFR L858R/T790M mutant = EGFR L858R/T790M mutant (Homo sapiens (Human), UniProt P00533, L858R/T790M); experiment: HotSpot radiometric kinase assay, EGFR L858R/T790M mutant; details: 10 μM ATP
Chain of EGFR L858R/T790M mutant (P00533 25-1210 T790M/L858R): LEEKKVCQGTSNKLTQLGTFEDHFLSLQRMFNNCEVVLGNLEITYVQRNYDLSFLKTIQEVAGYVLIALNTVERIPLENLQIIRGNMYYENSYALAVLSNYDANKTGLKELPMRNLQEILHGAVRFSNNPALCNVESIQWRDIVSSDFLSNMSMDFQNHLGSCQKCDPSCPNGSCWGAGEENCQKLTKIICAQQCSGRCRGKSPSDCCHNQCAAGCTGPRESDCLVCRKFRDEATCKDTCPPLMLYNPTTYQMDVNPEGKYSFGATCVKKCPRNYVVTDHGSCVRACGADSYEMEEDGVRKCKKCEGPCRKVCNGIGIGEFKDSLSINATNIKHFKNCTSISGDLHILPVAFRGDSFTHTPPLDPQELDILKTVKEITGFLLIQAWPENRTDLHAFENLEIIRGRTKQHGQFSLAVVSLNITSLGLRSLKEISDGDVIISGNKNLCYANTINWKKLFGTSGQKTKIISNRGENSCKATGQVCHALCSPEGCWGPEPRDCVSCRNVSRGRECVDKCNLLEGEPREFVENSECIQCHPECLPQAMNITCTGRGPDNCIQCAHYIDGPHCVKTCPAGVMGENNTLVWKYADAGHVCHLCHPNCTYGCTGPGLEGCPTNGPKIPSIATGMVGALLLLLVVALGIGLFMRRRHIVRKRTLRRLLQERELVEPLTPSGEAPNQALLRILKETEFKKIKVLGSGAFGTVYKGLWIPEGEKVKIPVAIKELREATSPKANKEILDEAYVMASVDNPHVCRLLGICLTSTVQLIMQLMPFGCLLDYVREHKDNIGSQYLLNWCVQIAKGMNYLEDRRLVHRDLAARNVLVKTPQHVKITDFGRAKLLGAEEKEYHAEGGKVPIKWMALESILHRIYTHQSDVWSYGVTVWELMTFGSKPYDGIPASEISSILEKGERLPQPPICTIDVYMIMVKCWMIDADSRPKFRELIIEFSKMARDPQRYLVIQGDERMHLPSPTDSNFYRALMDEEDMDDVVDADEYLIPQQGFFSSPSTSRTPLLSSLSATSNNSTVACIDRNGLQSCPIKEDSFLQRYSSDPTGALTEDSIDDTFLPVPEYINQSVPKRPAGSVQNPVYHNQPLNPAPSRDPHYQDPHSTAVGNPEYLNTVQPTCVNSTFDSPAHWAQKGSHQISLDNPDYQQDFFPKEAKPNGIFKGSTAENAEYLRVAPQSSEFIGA
How it was run: as §1

[2] = target: EGFR L858R/T790M/C797S mutant (Homo sapiens (Human), UniProt P00533, C797S/L858R/T790M); experiment: HotSpot radiometric kinase assay, EGFR L858R/T790M/C797S mutant; details: 10 μM ATP
Chain of EGFR L858R/T790M/C797S mutant (P00533 25-1210 T790M/C797S/L858R): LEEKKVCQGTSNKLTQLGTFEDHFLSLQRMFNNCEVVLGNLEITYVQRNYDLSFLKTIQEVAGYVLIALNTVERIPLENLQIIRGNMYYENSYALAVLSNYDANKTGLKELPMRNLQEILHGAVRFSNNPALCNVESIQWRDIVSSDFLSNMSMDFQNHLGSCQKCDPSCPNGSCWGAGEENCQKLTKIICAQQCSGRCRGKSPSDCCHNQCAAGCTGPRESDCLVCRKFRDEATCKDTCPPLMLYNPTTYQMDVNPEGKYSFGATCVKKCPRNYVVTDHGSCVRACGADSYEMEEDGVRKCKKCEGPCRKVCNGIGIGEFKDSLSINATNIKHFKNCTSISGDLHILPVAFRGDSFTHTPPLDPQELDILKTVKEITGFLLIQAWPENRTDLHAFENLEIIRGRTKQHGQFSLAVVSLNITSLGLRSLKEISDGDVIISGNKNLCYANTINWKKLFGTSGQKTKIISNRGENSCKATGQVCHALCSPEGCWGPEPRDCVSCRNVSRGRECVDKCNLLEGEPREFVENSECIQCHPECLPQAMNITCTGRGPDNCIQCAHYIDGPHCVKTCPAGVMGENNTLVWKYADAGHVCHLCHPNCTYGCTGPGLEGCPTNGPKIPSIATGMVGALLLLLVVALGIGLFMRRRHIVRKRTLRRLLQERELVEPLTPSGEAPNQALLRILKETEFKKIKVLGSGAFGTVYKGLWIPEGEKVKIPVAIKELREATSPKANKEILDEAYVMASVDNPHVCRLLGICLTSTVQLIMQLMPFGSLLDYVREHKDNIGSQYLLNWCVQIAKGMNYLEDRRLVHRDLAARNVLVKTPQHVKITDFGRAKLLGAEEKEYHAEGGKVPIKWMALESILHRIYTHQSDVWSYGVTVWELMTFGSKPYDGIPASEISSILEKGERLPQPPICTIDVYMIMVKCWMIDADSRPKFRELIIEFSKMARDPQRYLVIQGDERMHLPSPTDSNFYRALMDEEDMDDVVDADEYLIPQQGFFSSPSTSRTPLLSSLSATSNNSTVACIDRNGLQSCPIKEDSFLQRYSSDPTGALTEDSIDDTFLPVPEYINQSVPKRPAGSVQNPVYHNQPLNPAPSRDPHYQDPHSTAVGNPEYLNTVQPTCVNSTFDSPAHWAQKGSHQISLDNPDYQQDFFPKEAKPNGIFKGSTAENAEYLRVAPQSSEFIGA
How it was run: as §1

CLK1 = CLK1 (Homo sapiens (Human), UniProt P49759); experiment: Inhibition of CLK1 kinase activity evaluated at Nanosyn (ADP-Glo); details: ADP-Glo luminescence
Procedure: (§2) Inhibition of CLK, CLK2, CLK3 and CLK4 Kinase Activity Evaluated at Nanosyn
(§3) Kinase protein and substrate were pre-diluted in the HEPES assay buffer (100 mM HEPES, pH 7.5, 0.01% Triton X-100, 0.1% BSA, 5 mM MgCl2, […] DTT, 10 Sodium Orthovanadate, […] Beta-Glycerophosphate) dispensed into 384 well plate (5 μL per well). Control samples (0%-inhibition in the absence of inhibitor, DMSO only) and 100%-inhibition (in the absence of enzyme) were assembled in replicates of six and were used to calculate %-inhibition in the presence of compounds. Test compounds were added to the protein samples by acoustic dispensing (Labcyte Echo550). Concentration of DMSO was equalized to 1% in all samples. Reactions were initiated by addition of ATP by acoustic dispensing (Labcyte Echo550) and incubated according to assay specific incubation time. After incubation. 5 μL of Promega ADP-Glo reagent was added and incubated for 40 minutes. After 40 minutes, 10 uL of Promega kinase detection reagent was added. After 10 min of incubation with Kinase detection reagent, the luminescence was read on microplate reader (Biotek Synergy).

CLK2 = CLK2 (Homo sapiens (Human), UniProt P49760); experiment: Inhibition of CLK2 kinase activity evaluated at Nanosyn (ADP-Glo); details: ADP-Glo luminescence
Procedure: as §2, §3

CLK3 = CLK3 (Homo sapiens (Human), UniProt P49761); experiment: Inhibition of CLK3 kinase activity evaluated at Nanosyn (ADP-Glo); details: ADP-Glo luminescence
Chain of CLK3 (P49761 whole entry): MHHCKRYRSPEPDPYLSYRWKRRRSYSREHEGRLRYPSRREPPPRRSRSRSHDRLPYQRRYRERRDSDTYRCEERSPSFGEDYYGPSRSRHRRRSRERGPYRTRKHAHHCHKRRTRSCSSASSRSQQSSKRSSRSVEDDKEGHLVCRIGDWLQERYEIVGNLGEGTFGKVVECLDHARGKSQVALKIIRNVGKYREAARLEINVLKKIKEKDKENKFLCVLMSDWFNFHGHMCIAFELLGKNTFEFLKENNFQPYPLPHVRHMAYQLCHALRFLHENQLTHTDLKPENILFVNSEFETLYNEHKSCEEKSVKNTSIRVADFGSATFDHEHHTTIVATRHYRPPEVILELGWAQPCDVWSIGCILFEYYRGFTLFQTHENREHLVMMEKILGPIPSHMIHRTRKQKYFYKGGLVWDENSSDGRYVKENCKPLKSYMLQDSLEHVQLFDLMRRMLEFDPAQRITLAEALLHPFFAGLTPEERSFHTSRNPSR
Procedure: as §2, §3

CLK4 = CLK4 (Homo sapiens (Human), UniProt Q9HAZ1); experiment: Inhibition of CLK4 kinase activity evaluated at Nanosyn (ADP-Glo); details: ADP-Glo luminescence
Chain of CLK4 (Q9HAZ1 whole entry): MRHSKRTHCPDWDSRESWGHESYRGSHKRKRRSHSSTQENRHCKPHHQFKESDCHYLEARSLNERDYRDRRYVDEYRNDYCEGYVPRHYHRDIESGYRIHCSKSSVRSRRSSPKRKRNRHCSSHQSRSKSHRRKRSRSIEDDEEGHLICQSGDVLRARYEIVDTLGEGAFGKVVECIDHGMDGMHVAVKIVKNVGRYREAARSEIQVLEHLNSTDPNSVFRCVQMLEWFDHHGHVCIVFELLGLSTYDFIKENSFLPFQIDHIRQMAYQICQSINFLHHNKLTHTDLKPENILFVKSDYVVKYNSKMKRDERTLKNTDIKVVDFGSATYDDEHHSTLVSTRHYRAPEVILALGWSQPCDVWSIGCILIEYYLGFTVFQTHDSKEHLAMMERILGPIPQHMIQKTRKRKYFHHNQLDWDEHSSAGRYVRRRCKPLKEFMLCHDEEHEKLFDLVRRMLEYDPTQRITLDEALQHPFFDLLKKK
Procedure: as §2, §3

Chain of EGFR WT (P00533 25-1210): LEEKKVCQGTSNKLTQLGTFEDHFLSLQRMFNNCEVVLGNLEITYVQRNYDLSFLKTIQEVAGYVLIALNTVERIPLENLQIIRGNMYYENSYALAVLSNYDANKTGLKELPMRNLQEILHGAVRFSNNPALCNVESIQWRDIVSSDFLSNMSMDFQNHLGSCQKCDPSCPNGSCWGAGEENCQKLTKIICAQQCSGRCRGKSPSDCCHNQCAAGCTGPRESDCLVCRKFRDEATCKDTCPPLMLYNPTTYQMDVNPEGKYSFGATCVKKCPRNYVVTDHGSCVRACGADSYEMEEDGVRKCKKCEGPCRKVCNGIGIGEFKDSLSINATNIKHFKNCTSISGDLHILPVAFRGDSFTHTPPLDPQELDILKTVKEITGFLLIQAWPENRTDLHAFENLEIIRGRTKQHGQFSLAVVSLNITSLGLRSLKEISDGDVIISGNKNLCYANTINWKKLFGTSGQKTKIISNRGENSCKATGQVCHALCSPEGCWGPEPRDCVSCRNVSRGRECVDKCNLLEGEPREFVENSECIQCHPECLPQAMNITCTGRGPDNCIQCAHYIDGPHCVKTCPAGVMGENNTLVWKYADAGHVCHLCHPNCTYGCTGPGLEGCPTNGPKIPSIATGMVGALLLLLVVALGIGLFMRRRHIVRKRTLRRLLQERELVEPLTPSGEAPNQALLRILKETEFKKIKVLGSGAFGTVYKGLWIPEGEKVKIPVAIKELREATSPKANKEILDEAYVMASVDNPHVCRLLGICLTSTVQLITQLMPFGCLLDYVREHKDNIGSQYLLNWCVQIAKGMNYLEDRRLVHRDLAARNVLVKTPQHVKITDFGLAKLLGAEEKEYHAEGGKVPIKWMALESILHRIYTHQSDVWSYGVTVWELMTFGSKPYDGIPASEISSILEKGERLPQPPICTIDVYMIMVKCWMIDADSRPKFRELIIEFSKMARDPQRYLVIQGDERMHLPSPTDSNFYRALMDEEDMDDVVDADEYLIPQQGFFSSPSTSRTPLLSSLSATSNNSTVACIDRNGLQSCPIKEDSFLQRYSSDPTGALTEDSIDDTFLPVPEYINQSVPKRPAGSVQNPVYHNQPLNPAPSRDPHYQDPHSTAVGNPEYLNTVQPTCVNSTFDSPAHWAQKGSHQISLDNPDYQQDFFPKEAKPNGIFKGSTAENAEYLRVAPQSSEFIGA

IC50 (EGFR WT)	IC50 (EGFR (D770_N771insNPG))	IC50 (EGFR Δ746-750 mutant)	IC50 [1]	IC50 (EGFR L858R mutant)	IC50 (EGFR L858R/T790M mutant)	IC50 [2]	IC50 (CLK1)	IC50 (CLK2)	IC50 (CLK3)	IC50 (CLK4)	SMILES
123 nM	47.1 nM	23.8 nM	13.6 nM	35.7 nM	3.42 nM	8.89 nM	0.38 nM	0.23 nM	108 nM	0.55 nM	Cc1nn(C)c2c1/C=C/c1n[nH]c3ccc(cc13)-c1cnn(C)c1O[C@@H]1CCN(C2)C1 [Example 167, (10R,18E)-8,15,17-trimethyl-2,8,11,12,14,15-hexahydro-10H-3,5-etheno-10,13-methanotripyrazolo[3,4-g:3′,4′-k:4″,3″- 0][1,5]oxazacyclohexadecine]
908 nM	329 nM	116 nM	30.2 nM	310 nM	36.6 nM	25.9 nM	0.38 nM	0.36 nM	1000 nM	0.43 nM	Cn1ncc2c1OCCN1CC[C@H](C1)Oc1ccccc1/C=C/c1n[nH]c3ccc-2cc13 [Example 170, (10R,16E)-3-methyl-3,5,6,9,10,19-hexahydro-8H-20,22-etheno-7,10-methanodipyrazolo[3,4-i:4′,3′-m][1,8,5]benzodioxazacyclooctadecine]
25.9 nM	74.7 nM	8.88 nM	7.84 nM	6.88 nM	0.47 nM	0.33 nM	0.48 nM	0.3 nM	311 nM	1.35 nM	C[C@H]1CN(C)Cc2c(c(OC3CC(S(C)(=O)=O)C3)nn2C)/C=C/c2n[nH]c3ccc(cc23)-c2cnn(C)c2O1 (stereo partly drawn) [Example 187, (10S,17E)-16-{I3-(methanesulfonyl)cyclobutyl|oxy}-8,10,12,14-tetramethyl-2,10,11,12,13,14-hexahydro-8H-3,5-ethenotripyrazolo[3,4-f:3′,4′-j:4″,3″-n][1,4]oxazacyclopentadecine]
36.8 nM	47 nM	5.84 nM	1.96 nM	13.1 nM	0.89 nM	0.26 nM	0.76 nM	1.61 nM	1000 nM	1.63 nM	CCOc1nn(CCO)c2c1/C=C/c1n[nH]c3ccc(cc13)-c1cnn(C)c1OC[C@H](C)N(C1CC1)C2 [Example 198, 2-[(11S,17E)-12-cyclopropyl-16-ethoxy-8,11-dimethyl-2,8,10,11,12,13-hexahydro-14H-3,5-ethenotripyrazolo[3,4-f:3′,4′-j:4″,3″- n][1,4]oxazacyclopentadecin-14-yl]ethan-1-ol]

The next lines start with the compound.

SMILES	IC50 (EGFR WT)	IC50 (EGFR (D770_N771insNPG))	IC50 (EGFR Δ746-750 mutant)	IC50 [1]	IC50 (EGFR L858R mutant)	IC50 (EGFR L858R/T790M mutant)	IC50 [2]	IC50 (CLK1)	IC50 (CLK2)	IC50 (CLK3)	IC50 (CLK4)
CC(C)Oc1nn(CCO)c2c1/C=C/c1n[nH]c3ccc(cc13)-c1cnn(C)c1OC[C@H](C)N(C1CC1)C2 [Example 213, 2-{(11S,17E)-12-cyclopropyl-8,11-dimethyl-16-[(propan-2-yl)oxy]-2,8,10,11,12,13-hexahydro-14H-3,5-ethenotripyrazolo[3,4-f:3′,4′-j:4″,3″- n][1,4]oxazacyclopentadecin-14-yl}ethan-1-ol]	296 nM	431 nM	21.1 nM	5.07 nM	82.6 nM	0.42 nM	0.2 nM	5.75 nM	6.11 nM	1 nM	5.07 nM
CC(C)Oc1nn(CCO)c2c1/C=C/c1n[nH]c3ccc(cc13)-c1cnn(C)c1O[C@@H](C#N)CN(C)C2 [Example 264, (10R,17E)-14-(2-hydroxyethyl)-8,12-dimethyl-16-[(propan-2-yl)oxy]-2,10,11,12,13,14-hexahydro-8H-3,5-ethenotripyrazolo[3,4-f:3′,4′-j:4″,3″-n][1,4]oxazacyclopentadecine-10-carbonitrile]	815 nM	826 nM	162 nM	70 nM	491 nM	18 nM	8.63 nM	1.06 nM	3.08 nM	519 nM	1.59 nM

From patent US20250353864A1, “INDAZOLE CONTAINING MACROCYCLES AND THEIR USE” (BLOSSOMHILL THERAPEUTICS, INC., priority 2022, published 2025)
